pIC50: −log10 of the molar value.
System: 276233-004-R-J1-PDC complex spheroid viability
Test: Anticancer human tumor 276233-004-R-J1-PDC patient-derived colon adenocarcinoma cell line growth inhibition [GQUAD]
Settings: for pIC50: curve of first compound; for viability, T/C: stronger effect = lower value
Source text: DNA G-quadruplex Stabilizer Agents in Combinations in Complex Spheroids
A high-throughput screen of multi-cell type tumor spheroids was designed to identify active combinations of DNA G-quadruplex stabilizer agents and targeted small molecules. Complex spheroids include a stromal component modeled by human endothelial cells (HUVEC) and fibroblasts modeled by human mesenchymal stem cells (MSCs). The concentration ranges selected for each drug and investigational agent were based upon clinically achievable concentrations if the clinical Cmax of the agent was known.
Compounds. The drugs and investigational agents: pidnarulex (CX-5461; NSC782164), APTO-253 (NSC789042), BRACO-19 (NSC847499), peposertib (NSC802822), ceralasertib (NSC780249), elimusertib (NSC800525), camonsertib (NSC841442), AZD-1390 (NSC803789), olaparib (NSC753686), talazoparib (NSC767125), ART-558 (NSC835418), sotorasib (NSC818433), MRTX-1133 (NSC836407), SN-38 (NSC673596), topotecan (NSC609699), etoposide (NSC141540), doxorubicin (NSC123127), gemcitabine (NSC613327), 5-fluorouracil (NSC19893), paclitaxel (NSC125973), vemurafenib (NSC761431), panobinostat (NSC761190), R-306465 (JNJ-16241199; NSC773264), adavosertib (NSC754352), TP-3654 (NSC805149), carboplatin (NSC241240), KSQ-4279 (NSC840948), and staurosporine (NSC755774) were obtained from the National Cancer Institute (NCI) Developmental Therapeutics Program Chemical Repository (34). The FDA-approved anticancer drug set is available from the NCI Developmental Therapeutics Program. […] The stock solutions were prepared in dimethyl sulfoxide (DMSO, Sigma-Aldrich, St. Louis, MO, cat. D2650) at 800-fold the tested concentration and stored at -70 degrees C prior to their use. All drugs and investigational agents were tested over a range starting from a high concentration at or near the clinical Cmax and decreasing in half-log increments. If the clinical Cmax for an agent had not been determined, the highest concentration tested was 10 microM.
2.3 Cell Culture. All cells were maintained in an incubator at 37 degrees C and 5% CO2 with 95% humidity. The PDC lines were cultured according to standard operating procedures established by the NCI PDMR. All PDCs were thawed and cultured in Matrigel-coated flasks prepared with a working solution of 1X Ham's F-12 nutrient mix, without supplementation (Invitrogen, cat. 11765054), 100 U/mL penicillin-streptomycin (Invitrogen, cat. 15140122), and 2.5% Matrigel (Corning Inc., cat. 354248) for the first three passages. The 857933-349-R-J2-PDC line was cultured in 6C/Colon 1B media, which includes advanced DMEM/F-12 (Thermo Fisher Scientific, cat. 12634028), 10 mM HEPES (Thermo Fisher Scientific, cat. 15630080), 1X GlutaMAX supplement (Thermo Fisher Scientific, cat. 35050061), 0.1 mg/mL primocin (InvivoGen, cat. ant-pm-2), 10% defined fetal bovine serum, heat inactivated (HyClone Laboratories Inc., cat. SH30070.03HI), 50% L-WRN conditioned media (ATCC, cat. CRL-3276), 1.25 mM N-Acetyl-L-cysteine (Sigma-Aldrich, cat. A9165), 10 mM nicotinamide (Sigma-Aldrich, cat. N0636), 1X B-27 supplement (Thermo Fisher Scientific, cat. 17504044), 1X N-2 supplement (Thermo Fisher Scientific, cat. 17502048), 10 microM Y-27632 dihydrochloride (Tocris Bioscience, cat. 1254), and 50 ng/mL human EGF recombinant protein (Thermo Fisher Scientific, cat. PHG0311). The 485176-168-R4-J1-PDC line was cultured in Panc media, which includes all 6C/Colon 1B media components plus 100 ng/mL human FGF-10 (Thermo Fisher Scientific, cat. 100-26), 500 nM SB-431542 (Selleckchem, cat. S1067), and gastrin (Tocris, cat. 3006).
[…]

[1] = second compound 0.0316 µM, first compound 0.0316 µM
[2] = second compound 0.0316 µM, first compound 0.1 µM
[3] = second compound 0.0316 µM, first compound 0.316 µM
[4] = second compound 0.0316 µM, first compound 1 µM
[5] = second compound 0.0316 µM, first compound 3.16 µM
[6] = second compound 0.0316 µM, first compound 10 µM
[7] = second compound 0.1 µM, first compound 0.0316 µM
[8] = second compound 0.1 µM, first compound 0.1 µM
[9] = second compound 0.1 µM, first compound 0.316 µM
[10] = second compound 0.1 µM, first compound 1 µM
[11] = second compound 0.1 µM, first compound 3.16 µM
[12] = second compound 0.1 µM, first compound 10 µM
[13] = second compound 0.316 µM, first compound 0.0316 µM
[14] = second compound 0.316 µM, first compound 0.1 µM
[15] = second compound 0.316 µM, first compound 0.316 µM
[16] = second compound 0.316 µM, first compound 1 µM
[17] = second compound 0.316 µM, first compound 3.16 µM
[18] = second compound 0.316 µM, first compound 10 µM
[19] = second compound 1 µM, first compound 0.0316 µM
[20] = second compound 1 µM, first compound 0.1 µM
[21] = second compound 1 µM, first compound 0.316 µM
[22] = second compound 1 µM, first compound 1 µM
[23] = second compound 1 µM, first compound 3.16 µM
[24] = second compound 1 µM, first compound 10 µM
[25] = second compound 3.16 µM, first compound 0.0316 µM
[26] = second compound 3.16 µM, first compound 0.1 µM
[27] = second compound 3.16 µM, first compound 0.316 µM
[28] = second compound 3.16 µM, first compound 1 µM
[29] = second compound 3.16 µM, first compound 3.16 µM
[30] = second compound 3.16 µM, first compound 10 µM
[31] = second compound 10 µM, first compound 0.0316 µM
[32] = second compound 10 µM, first compound 0.1 µM
[33] = second compound 10 µM, first compound 0.316 µM
[34] = second compound 10 µM, first compound 1 µM
[35] = second compound 10 µM, first compound 3.16 µM
[36] = second compound 10 µM, first compound 10 µM
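Also: spheroids exposed to drugs for seven days.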
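For viability, T/C in this document: 100% = DMSO vehicle control viability.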

## C=CCn1c(=O)c2cnc(Nc3ccc(N4CCN(C)CC4)cc3)nc2n1-c1cccc(C(C)(C)O)n1 + CN(C)c1ccc(Nc2c3ccc(NC(=O)CCN4CCCC4)cc3nc3cc(NC(=O)CCN4CCCC4)ccc23)cc1
Second compound 0.0316 µM
  pIC50: < 5.00
Second compound 0.1 µM
  pIC50: < 5.00
Second compound 0.316 µM
  pIC50: < 5.00
Second compound 1 µM
  pIC50: > 7.50
Second compound 3.16 µM
  pIC50: 6.34
Second compound 10 µM
  pIC50: > 7.50
[1]
  viability, T/C: 87.6%
[2]
  viability, T/C: 86.2%
[3]
  viability, T/C: 66.3%
[4]
  viability, T/C: 68.4%
[5]
  viability, T/C: 68.6%
[6]
  viability, T/C: 88.7%
[7]
  viability, T/C: 81.6%
[8]
  viability, T/C: 80.5%
[9]
  viability, T/C: 49%
[10]
  viability, T/C: 64.7%
[11]
  viability, T/C: 53.2%
[12]
  viability, T/C: 67.9%
[13]
  viability, T/C: 81.5%
[14]
  viability, T/C: 67.3%
[15]
  viability, T/C: 54.6%
[16]
  viability, T/C: 51.6%
[17]
  viability, T/C: 54.8%
[18]
  viability, T/C: 75%
[19]
  viability, T/C: 47.1%
[20]
  viability, T/C: 56.2%
[21]
  viability, T/C: 49.7%
[22]
  viability, T/C: 42.5%
[23]
  viability, T/C: 54.7%
[24]
  viability, T/C: 74%
[25]
  viability, T/C: 56.9%
[26]
  viability, T/C: 52.5%
[27]
  viability, T/C: 57.2%
[28]
  viability, T/C: 38.1%
[29]
  viability, T/C: 52.1%
[30]
  viability, T/C: 40.2%
[31]
  viability, T/C: 41.4%
[32]
  viability, T/C: 45.5%
[33]
  viability, T/C: 53.8%
[34]
  viability, T/C: 38.9%
[35]
  viability, T/C: 47.9%
[36]
  viability, T/C: 54.6%

## COc1cccc2c1C(=O)c1c(O)c3c(c(O)c1C2=O)CC(O)(C(=O)CO)CC3OC1CC(N)C(O)C(C)O1 (centres undefined) + CN(C)c1ccc(Nc2c3ccc(NC(=O)CCN4CCCC4)cc3nc3cc(NC(=O)CCN4CCCC4)ccc23)cc1
Second compound 0.0316 µM
  pIC50: < 5.00
Second compound 0.1 µM
  pIC50: < 5.00
Second compound 0.316 µM
  pIC50: < 5.00
Second compound 1 µM
  pIC50: < 5.00
Second compound 3.16 µM
  pIC50: > 7.50
Second compound 10 µM
  pIC50: < 5.00
[1]
  viability, T/C: 88%
[2]
  viability, T/C: 94.7%
[3]
  viability, T/C: 77.5%
[4]
  viability, T/C: 61.7%
[5]
  viability, T/C: 43%
[6]
  viability, T/C: 66.7%
[7]
  viability, T/C: 102%
[8]
  viability, T/C: 83.8%
[9]
  viability, T/C: 72.8%
[10]
  viability, T/C: 74.8%
[11]
  viability, T/C: 60.6%
[12]
  viability, T/C: 76.7%
[13]
  viability, T/C: 80.6%
[14]
  viability, T/C: 68.4%
[15]
  viability, T/C: 67.9%
[16]
  viability, T/C: 40.8%
[17]
  viability, T/C: 63.1%
[18]
  viability, T/C: 54.4%
[19]
  viability, T/C: 55.8%
[20]
  viability, T/C: 47%
[21]
  viability, T/C: 53.2%
[22]
  viability, T/C: 52.3%
[23]
  viability, T/C: 63.5%
[24]
  viability, T/C: 52.8%
[25]
  viability, T/C: 49.6%
[26]
  viability, T/C: 49.3%
[27]
  viability, T/C: 56.8%
[28]
  viability, T/C: 56.4%
[29]
  viability, T/C: 59.4%
[30]
  viability, T/C: 53.7%
[31]
  viability, T/C: 48.6%
[32]
  viability, T/C: 51.5%
[33]
  viability, T/C: 55.7%
[34]
  viability, T/C: 62.6%
[35]
  viability, T/C: 50.5%
[36]
  viability, T/C: 43.5%

Source: PubChem BioAssay AID2060496 (Molecular Pharmacology Branch, DTP, NCI, 2025)
